Measured values published in patent US20250340837A1, “CELLS” (University of Geneva, priority 2022, published 2025).

System: C57Bl/6 otic progenitors
Assay: Stemness reprogramming and regeneration in hair cell progenitors
Assay type: cell-based, mouse
Conditions: 30 days, with CHIR99021 3 μM
Protocol: C57Bl/6 otic progenitors were plated at 10,000 cells/well of a 96 well plate and treated with WNT agonist (CHIR99021; 3 μM) and the above mentioned compounds for 30 days. (A) Graph representing the average growth (% otic progenitors cultured in presence of GF+CHIR) after 30 days. […] Data represent the average±SEM of three independent experiments.
For reprogramming stemness of auditory hair cells, C57Bl/6 otic progenitors were plated at 10,000 cells/well of a 96 well plate and treated with WNT agonist (CHIR99021; 3 μM) and the above mentioned compounds for 30 days.

## COc1cc(-c2cc(-c3ccc(N4CCNCC4)cc3)cnc2C)cc(OC)c1OC [compound 51, LDN-214117]
  stemness reprogramming, average growth (% otic progenitors cultured in presence of GF+CHIR): particularly good candidates
